Columns and labels:
[1] = test system: yeast-induced fever in rats; test: Effect of L-glutamine on antipyretic activity of aspirin in rats (Experiment B); type: in vivo, male Wistar strain rats; details: for Rectal temperature: L-glutamine 1000 mg/kg oral
Experimental: In this Experiment, male Wistar strain rats weighing about 90-100 g are treated with 2.5 ml/rat of a suspension of yeast (Brewers Yeast, product of Nutritional Biochem. Co., U.S.A.) in physiological saline (concentration: 250 mg/ml), by subcutaneous injection in the back, according to the method of Gleen et al [Gleen, E. M. et al: J. Pharma. Exp. Therp., 155, 157 (1967)]. The animals are then fasted. The animals showing an increased rectal temperature of 38° C or more after 17 hours are selected for use in experiment. […] As a control, one group is treated with 105 ml of 1% carboxymethylcellulose solution alone. After the treatment, the rectal temperature is measured at the time indicated.

[2] = test system: acetic acid-induced writhing response in mice; test: Effect of L-glutamine on analgesic activity of aspirin in mice (Experiment C); type: in vivo, male dd strain mice; details: presence of L-glutamine
Experimental: In this Experiment, 3 groups of male dd strain mice weighing 19-21 g are used.
As a control, the third group is treated only with 1% carboxymethylcellulose solution. After a control period of one hour, the animals are treated with 0.2 ml of 0.7% acetic acid solution in physiological saline by intraperitoneal injection, according to the method of Koster et al. [Koster, R. et al: Fed. Proc., 18, 412 (1959)]. Starting 10 minutes after the administration of acetic acid, the number of writhing reaction occurred in 10 minutes is counted.

[3] = test system: gastric secretion in pylorus-ligated rats; test: Effect of L-glutamine on gastric secretion in pylorus-ligated rats (Experiment 4); type: in vivo, male Donryu strain rats; details: for Gastric juice volume / Pepsin concentration / Titrable acidity: 7 hours; for Acid output: volume × titrable acidity / 7 hours
Experimental: In this Experiment, 7 groups of male Donryu strain rats are used. After 24 hours of fasting, the pylorus of the animal is ligated in the same manner as described in Experiment 1. Six groups are treated in the same manner as described in Experiment 1 except for the injection of the solution of pontamine sky blue 6BX in saline. A seventh group (normal) is treated twice with 5 ml/kg of 1% carboxymethylcellulose solution.
After 7 hours of pylorus ligation, the animals are killed and the stomach is removed. The gastric juice is collected and the volume is measured. The gastric juice is titrated to pH 7.4 with 0.1N NaOH using an electromatic pH meter. The concentration of pepsin in the gastric juice is also determined according to Anson's hemoglobin method [Anson, M. L., J. Gen. Physiol.

[4] = test system: aspirin-induced gastric lesions in pylorus-ligated rats; test: Effect of various amino acids on aspirin-induced gastric lesions in pylorus-ligated rats (Experiment 3); type: in vivo, male Donryu strain rats
[5] = test system: carageenin-induced paw edema in rats; test: Effect of L-glutamine on anti-inflammatory activity of aspirin in rats (Experiment D); type: in vivo, male Donryu strain rats
Experimental: As a control, a sixth group is treated with 1% carboxymethylcellulose solution. After one hour, the animals are treated with a phlogistic agent of 0.1 ml of 1% carrageenin solution by subcutaneous injection in a hind paw, according to the method of Yamasaki et al. [Yamasaki, H. et al: Folia Pharm. Jap., 63, 302 (1967)]. Swelling of the paw is measured 5 hours after the administration of the phlogistic agent.

[6] = test system: indomethacin-induced gastric lesions in pylorus-ligated rats; test: Effect of L-glutamine on indomethacin-induced gastric lesions in pylorus-ligated rats (Experiment 2); type: in vivo, male Donryu strain rats; details: for Ulcer index / Inhibition: indomethacin 20 mg/kg i.p.; for Inhibition: vs control ulcer index
Experimental: In this Experiment, 8 groups of male Donryu strain rats are used. The animals are fasted for 24 hours but water is allowed ad libitum. Under ether anesthesia, the pylorus is ligated according to the standard method of Shay et al. Seven groups are treated with graded doses of L-glutamine suspended in 1% carboxymethylcellulose solution by oral administration immediately after the pylorus ligation. An eighth group (control) is treated with 5 ml/kg of 1% carboxymethylcellulose solution alone. Following a control period of 10 minutes, the animals are treated with 20 mg/kg of indomethacin suspended in a trace amount of Tween 80 (trade name of Atlas Chemical Industries Inc., U.S.A.) by intraperitoneal injection. Thereafter, the animals are treated in the same manner as described in Experiment 1 and the length of lesions is measured.

[7] = Effect of L-glutamine on absorption of aspirin in rats (plasma salicylate level; Experiment A); type: in vivo, male Wistar strain rats; details: L-glutamine administered together with aspirin
Experimental: In this Experiment, 2 groups of male Wistar strain rats weighing about 280-320 g, each consisting of 12 animals are fixed in supine position. Under ether anesthesia, the carotid artery is cannulated for blood sampling. Upon recovery from the anesthesia, one group is treated with 1000 mg/kg of L-glutamine suspended in 1% carboxymethylcellulose solution and the other group (control) with 5 ml/kg of 1% carboxymethylcellulose solution alone, by oral administration. […] The same treatments are applied also to 2 groups of pylorus-ligated rats, each consisting of 5 animals.
The blood sample is centrifuged at 8,000 r.p.m. for 5 minutes and 20 μl of plasma is collected for the measurement of salicylate concentration. Salicylate concentration of plasma is determined according to the method of Lever & Powell [Lever, M. and Powell, J. C.: Biochem. Med., 7, 203 (1973)].

[8] = test system: experimental ulcers; details: induced by stress, pylorus ligation, histamine, reserpine or cortisone; cited from earlier work
[9] = L-glutamine 62.5 mg/kg, aspirin 100 mg/kg
[10] = L-glutamine 125 mg/kg, aspirin 100 mg/kg
[11] = L-glutamine 250 mg/kg, aspirin 100 mg/kg
[12] = L-glutamine 500 mg/kg, aspirin 100 mg/kg
[13] = L-glutamine 1000 mg/kg in presence of aspirin
[14] = L-glutamine 1,000 mg/kg, aspirin 100 mg/kg
[15] = L-glutamine 1000 mg/kg oral, 5 hours after phlogistic agent

NC(=O)CC[C@H](N)C(=O)O [L-glutamine]
Rectal temperature ([1]; 0 hour): 38.6±0.2 °C | Rectal temperature ([1]; 1 hour): 38.5±0.2 °C | Rectal temperature ([1]; 2 hours): 38.2±0.3 °C | Rectal temperature ([1]; 4 hours): 38.1±0.4 °C | Rectal temperature ([1]; 6 hours): 38.2±0.3 °C | influence on antipyretic activity of aspirin ([1]; presence of L-glutamine): not substantially influenced | influence on analgesic activity of aspirin [2]: not substantially influenced | acid parameters (in words) ([3]; L-glutamine 62.5 mg/kg in presence of aspirin): almost the same as those of the control group | Gastric juice volume [3, 9]: 12.3 ± 0.5 mL | Pepsin concentration [3, 9]: 26.3 ± 0.5 mg/mL | Titrable acidity [3, 9]: 56.2±3.8 mEq/L | Acid output [3, 9]: 97.8±6.5 μEq/hr | Gastric juice volume [3, 10]: 12.1 ± 0.6 mL | Pepsin concentration [3, 10]: 25.5 ± 0.8 mg/mL | Titrable acidity [3, 10]: 88.9±4.8 mEq/L | Acid output [3, 10]: 154.0±12.1 μEq/hr | appearance of gastric juices compared with control group ([3]; L-glutamine 250 mg/kg or more, aspirin 100 mg/kg): relatively clear | Gastric juice volume [3, 11]: 12.5 ± 0.5 mL | Pepsin concentration [3, 11]: 27.1 ± 0.7 mg/mL | Titrable acidity [3, 11]: 108.0±4.2 mEq/L | Acid output [3, 11]: 194.1±13.5 μEq/hr | change in acid parameters (in words) ([3]; L-glutamine 500 mg/kg in presence of aspirin): No significant change | Gastric juice volume [3, 12]: 11.9 ± 0.4 mL | Pepsin concentration [3, 12]: 25.4 ± 0.7 mg/mL | Titrable acidity [3, 12]: 127.1±4.6 mEq/L | Acid output [3, 12]: 215.5±10.3 μEq/hr | effect on acid output (in words) [3, 13]: considerably increases the titrable acidity and acid output | effect on titrable acidity (in words) [3, 13]: considerably increases the titrable acidity | Gastric juice volume [3, 14]: 12.2 ± 0.3 mL | Pepsin concentration [3, 14]: 23.6 ± 1.1 mg/mL | Titrable acidity [3, 14]: 139.4±3.4 mEq/L | Acid output [3, 14]: 243.9±8.1 μEq/hr | pepsin concentration (in words) ([3]; L-glutamine at a wide range of doses): maintained at a normal level | inhibition in vivo at 750 mg/kg ([4]; Rattus norvegicus, po, read-out: Inhibition): 87.8% | Ulcer index ([4]; amino acid 750 mg/kg oral, aspirin by gastric intubation): 5.5±2.0 mm | Suppression ratio [5, 15]: 5.4% | Swelling ratio [5, 15]: 117.2±4.7% | influence on anti-inflammatory activity of aspirin ([5]; presence of L-glutamine): not substantially influenced | effect on the prevention of indomethacin-induced gastric lesions ([6]; L-glutamine 15.6 mg/kg): no effect | Ulcer index ([6]; L-glutamine 15.6 mg/kg oral): 12.1±3.5 mm | Inhibition ([6]; L-glutamine 15.6 mg/kg oral): 3.2% | inhibition of gastric lesions (in words) ([6]; L-glutamine 31.3 mg/kg): fairly inhibits the gastric lesions but the inhibition is not significant | Ulcer index ([6]; L-glutamine 31.3 mg/kg oral): 5.0±1.1 mm | Inhibition ([6]; L-glutamine 31.3 mg/kg oral): 60.0% | prevention of indomethacin-induced gastric lesions ([6]; L-glutamine 62.5 mg/kg - 1000 mg/kg): effective for the prevention of indomethacin-induced gastric lesions | Ulcer index ([6]; L-glutamine 62.5 mg/kg oral): 2.6±0.8 mm | Inhibition ([6]; L-glutamine 62.5 mg/kg oral): 79.2% | Ulcer index ([6]; L-glutamine 125 mg/kg oral): 3.9±1.5 mm | Inhibition ([6]; L-glutamine 125 mg/kg oral): 68.8% | Ulcer index ([6]; L-glutamine 250 mg/kg oral): 2.4±0.4 mm | Inhibition ([6]; L-glutamine 250 mg/kg oral): 80.8% | Ulcer index ([6]; L-glutamine 500 mg/kg oral): 1.6±0.7 mm | Inhibition ([6]; L-glutamine 500 mg/kg oral): 87.2% | Ulcer index ([6]; L-glutamine 1,000 mg/kg oral): 0.5±0.3 mm | Inhibition ([6]; L-glutamine 1,000 mg/kg oral): 96.0% | effect on absorption of aspirin (in words) [7]: does not inhibit the absorption of aspirin | prevention or treatment of certain experimental ulcers [8]: effective for the prevention or treatment of certain experimental ulcers
